Data set [1] addresses Rat recombinant PDE10a (rPDE10a) (Rattus norvegicus (Rat), UniProt Q9QYJ6). As to the kind of experiment: In vitro assay PDE10a: rat recombinant PDE10a SPA with 3H-cAMP substrate, IC50. The format is biochemical. Conditions: 60 nM cAMP, read-out: rPDE10a2 IC50. In a few lines:
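Enzyme expressed in Sf9 cells via baculovirus and Ni-sepharose purified; reaction with 3H-cAMP ran 60 min at rt, stopped with PDE SPA beads. Compounds diluted in DMSO at 100-fold final concentration; blanks omitted enzyme.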

The target in data set [2] is Human recombinant PDE10A2 (Homo sapiens (Human), UniProt Q9Y233). As to the kind of experiment: In vitro hPDE10a: human recombinant PDE10A2 scintillation proximity assay, IC50. Conditions: human recombinant PDE10A2, SPA, 60 nM cAMP; read-out: hPDE10a2 IC50. In kind it is biochemical. The procedure, abridged:
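Purified recombinant human PDE10A2 (Ni-sepharose) was assayed by SPA, counting [3H]-AMP product captured on yttrium silicate beads added in zinc sulphate stop solution. Inhibition was expressed as % of activity without compound, with a no-enzyme low control. Repeat data points were aggregated.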

Data set [3] in a line: PDE10a perfused brain permeability study: plasma concentrations at 30 and 120 min, brain concentration at 120 min, brain/plasma ratio. Conditions: male, Sprague-Dawley, rat; for Kp at 2 h: brain/plasma.
Protocol: PDE10a-Brain Permeability Assay
(§1) A. PDE10a-Perfused Brain Permeability Study Protocol
(§2) Drug administration by oral gavage, subcutaneous injection or intravenous was carried out using male Sprague Dawley rats under IACUC protocol (SH-MET3010). Male Sprague Dawley rats (Charles River) ˜300-350 g were maintained on a 4% standard rodent diet (Test Diet 5001). They are allowed ad libitum access to water and food. Room temperature was maintained at 64° F. and humidity at 30-70%.
(§3) Three animals per compound were provided a dose of 2 mg/mL in 20% HpbCD/Tris pH 8 by tail i.v. or 30 mpk p.o. or s.c. in 20% HpbCD/Tris pH 8, with PDE10a antagonists. A first blood sample was collected at 30 min via retro-orbital sinus (anesthetic by 70% CO2/30% O2) into heparinzed plasma separator tubes. The blood was centrifuged and 100 μL plasma was placed into a 96 well plate and saved on dry ice.
(§4) After the 120 min, the final blood sample was collected via retro-orbital sinus under anesthesia by IP 0.5 cc injection of a 4/1 mixture of Ketaset: AnaSed [(prepared 10 mL Ketaset (100 mg/mL Ketamine)+2.5 mL AnaSed (20 mg/mL Xylazine)]. The rats were then perfused with 400 mL heparinized saline (10,000 units/L) through the left ventricle of the heart; the brains were then removed (not including the medulla), weighed and homogenized in PBS (4 mL/g tissue). The samples were stored at −80° C. and submitted for chemical analysis of blood and brain concentrations. Endpoints of sample analysis consists of the plasma concentrations at 30 and 120 min, plus brain concentrations at 120 min.
For data set [4] the following is noted: rat, in vivo.
Protocol: PDE10a-Brain Permeability Assay
as §1, §2, §3, §4

pIC50: −log10 of the molar value. Where a name gives a salt, the structure may show the parent alone.

Sequence of Rat recombinant PDE10a (rPDE10a) (Q9QYJ6 whole entry): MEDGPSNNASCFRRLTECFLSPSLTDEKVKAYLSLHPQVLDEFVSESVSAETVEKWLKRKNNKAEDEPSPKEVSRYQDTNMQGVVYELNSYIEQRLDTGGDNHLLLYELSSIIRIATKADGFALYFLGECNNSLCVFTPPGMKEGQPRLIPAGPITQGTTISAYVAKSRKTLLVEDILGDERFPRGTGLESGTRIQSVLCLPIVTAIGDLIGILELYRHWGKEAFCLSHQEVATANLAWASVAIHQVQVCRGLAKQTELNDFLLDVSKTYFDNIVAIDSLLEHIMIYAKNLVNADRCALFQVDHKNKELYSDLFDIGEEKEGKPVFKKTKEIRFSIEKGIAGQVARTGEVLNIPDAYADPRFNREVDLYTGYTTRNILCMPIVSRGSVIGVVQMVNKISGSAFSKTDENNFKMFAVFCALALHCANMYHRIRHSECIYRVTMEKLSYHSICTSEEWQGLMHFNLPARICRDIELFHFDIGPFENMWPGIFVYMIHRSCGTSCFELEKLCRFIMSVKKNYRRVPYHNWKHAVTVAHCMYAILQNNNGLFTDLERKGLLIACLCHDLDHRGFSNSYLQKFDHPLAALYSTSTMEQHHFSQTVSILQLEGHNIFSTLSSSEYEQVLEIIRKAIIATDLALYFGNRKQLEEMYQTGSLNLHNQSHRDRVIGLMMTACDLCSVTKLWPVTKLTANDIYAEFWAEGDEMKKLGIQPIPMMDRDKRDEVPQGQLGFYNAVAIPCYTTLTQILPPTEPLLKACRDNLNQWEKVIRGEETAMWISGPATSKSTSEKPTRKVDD
Sequence of Human recombinant PDE10A2 (Q9Y233 267-1055): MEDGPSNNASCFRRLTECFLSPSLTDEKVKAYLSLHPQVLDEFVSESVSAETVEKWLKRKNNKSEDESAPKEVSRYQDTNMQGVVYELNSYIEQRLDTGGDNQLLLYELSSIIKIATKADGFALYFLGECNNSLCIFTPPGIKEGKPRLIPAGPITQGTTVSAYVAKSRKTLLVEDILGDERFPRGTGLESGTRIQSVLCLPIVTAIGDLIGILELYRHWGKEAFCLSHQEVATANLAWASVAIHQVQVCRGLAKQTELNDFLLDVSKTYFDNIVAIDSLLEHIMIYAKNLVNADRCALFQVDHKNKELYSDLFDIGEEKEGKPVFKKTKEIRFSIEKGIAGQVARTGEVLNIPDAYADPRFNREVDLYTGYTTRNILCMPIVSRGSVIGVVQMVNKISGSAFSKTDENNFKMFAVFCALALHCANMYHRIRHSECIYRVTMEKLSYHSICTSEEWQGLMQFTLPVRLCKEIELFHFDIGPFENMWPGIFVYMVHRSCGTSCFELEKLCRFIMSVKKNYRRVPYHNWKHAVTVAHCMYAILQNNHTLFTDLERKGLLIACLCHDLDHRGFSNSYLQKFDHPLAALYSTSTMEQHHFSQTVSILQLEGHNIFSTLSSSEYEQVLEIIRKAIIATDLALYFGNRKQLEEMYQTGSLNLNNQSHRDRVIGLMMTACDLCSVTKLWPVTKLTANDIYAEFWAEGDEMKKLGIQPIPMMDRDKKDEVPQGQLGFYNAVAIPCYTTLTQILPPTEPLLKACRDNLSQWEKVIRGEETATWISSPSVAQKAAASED

One may read the pIC50 as −log10 of the IC50, conventionally taken in molar units. Usually Kp stands for the ratio of the level in a tissue or fluid to that in plasma or blood. Turning to `OC(c1ccc(-c2c(/C=C/c3ccc4ccccc4n3)nc3c(N4CCOCC4)ccnn23)cc1)(C(F)(F)F)C(F)(F)F` [compound 52, (E)-1,1,1,3,3,3-Hexafluoro-2-(4-(8-morpholino-2-(2-(quinolin-2-yl)vinyl)imidazo[1,2-b]pyridazin-3-yl)phenyl)propan-2-ol], the pIC50 was 7.39 in data set [1] and 7.28 in data set [2]. The concentration at 2 h in data set [3] (brain) was found to be 54 ng/g; in data set [3] (plasma), 326 ng/mL. Also, in data set [3], the Kp at 2 h was 0.16.

Turning to `O=C(O)CCc1ccc(-c2c([C@H]3C[C@H](c4ccc5ccccc5n4)C3)nc3c(N4CCOCC4)ccnn23)cc1` [compound 169, 3-(4-(8-Morpholino-2-((1r,3r)-3-(quinolin-2-yl)cyclobutyl)imidazo[1,2-b]pyridazin-3-yl)phenyl)propanoic acid], the pIC50 in data set [2] is 8.70. Besides, in data set [4], the “Brain conc 2 h” value turned out to be 0 ng/g, the “Plasma conc 2 h” value turned out to be 106 ng/mL and the “Ratio Br/Pl Mean 2 h” value is on record as 0.

Regarding `O=C(O)CCC(=O)Nc1ccc(-c2c(/C=C/c3ccc4ccccc4n3)nc3c(N4CCOCC4)ccnn23)cc1` [compound 48, (E)-4-((4-(8-Morpholino-2-(2-(quinolin-2-yl)vinyl)imidazo[1,2-b]pyridazin-3-yl)phenyl)amino)-4-oxobutanoic acid], the pIC50 was 8.22 in data set [1] and 8.05 in data set [2]. Besides, the concentration at 2 h is 0 ng/g in data set [3] (brain) and 35 ng/mL in data set [3] (plasma). Moreover, in data set [3], the Kp at 2 h was determined as 0.

As to `O=C(O)c1ccc(-c2c(CCc3ccc4ccccc4n3)nc3c(N4CCOCC4)ccnn23)cc1` [compound 41, 4-(8-Morpholino-2-(2-(quinolin-2-yl)ethyl)imidazo[1,2-b]pyridazin-3-yl)benzoic acid], the pIC50 in data set [1] and in data set [2] was 9.00 throughout. Also, the concentration at 2 h in data set [3] (brain) was 0 ng/g; in data set [3] (plasma) it was 38 ng/mL. Further, the Kp at 2 h in data set [3] is 0.

As to `O=C(O)c1ccc(-c2c(/C=C/c3ccc4c(n3)CCCC4)nc3c(N4CCOCC4)ccnn23)cc1` [Cpd 76, (E)-4-(8-Morpholino-2-(2-(5,6,7,8-tetrahydroquinolin-2-yl)vinyl)imidazo[1,2-b]pyridazin-3-yl)benzoic acid], the pIC50 in data set [1] is 8.15; in data set [2], 8.30. Moreover, the concentration at 2 h in data set [3] (brain) came out at 9.3 ng/g; in data set [3] (plasma), 568 ng/mL. Besides, the Kp at 2 h in data set [3] was determined as 0.02.

`COc1cc(-c2c(/C=C/c3ccc4ccccc4n3)nc3c(N4CCOCC4)ccnn23)ccc1C(=O)O` [compound 67, (E)-2-Methoxy-4-(8-morpholino-2-(2-(quinolin-2-yl)vinyl)imidazo[1,2-b]pyridazin-3-yl)benzoic acid]: the pIC50 in data set [1] was 8.30; in data set [2], 7.66. Also, the values for the concentration at 2 h in data set [3] (brain) and in data set [3] (plasma) were 16.9 ng/g and 725 ng/mL, respectively. In addition, in data set [3], the Kp at 2 h is 0.02.

`CS(=O)(=O)NC(=O)c1ccc(-c2c(/C=C/c3ccc4ccccc4n3)nc3c(N4CCOCC4)ccnn23)cc1` [compound 39, (E)-N-(Methylsulfonyl)-4-(8-morpholino-2-(2-(quinolin-2-yl)vinyl)imidazo[1,2-b]pyridazin-3-yl)benzamide]: the pIC50 was 8.52 in data set [1] and 8.30 in data set [2]. For the same compound, the values for the concentration at 2 h in data set [3] (brain) and in data set [3] (plasma) were 0 ng/g and 147 ng/mL, respectively. The Kp at 2 h in data set [3] came out at 0.

`CS(=O)(=O)NC(=O)c1ccc(-c2c(/C=C/c3ccc4ccccc4n3)nc3c(N4CCOCC4)ccnn23)cc1F` [compound 134, (E)-2-Fluoro-N-(methylsulfonyl)-4-(8-morpholino-2-(2-(quinolin-2-yl)vinyl)imidazo[1,2-b]pyridazin-3-yl)benzamide]: the pIC50 in data set [1] was 8.15; in data set [2], 8.40. The results for the concentration at 2 h in data set [3] (brain) and in data set [3] (plasma) were 0 ng/g and 926 ng/mL, respectively. Also, the Kp at 2 h in data set [3] turned out to be 0.

In the case of `c1ccc2nc(SCc3nc4c(N5CCOCC5)ccnn4c3-c3ccc(N4CCNCC4)nc3)ccc2c1` [Cpd 6, 4-(3-(6-(piperazin-1-yl)pyridin-3-yl)-2-((quinolin-2-ylthio)methyl)imidazo[1,2-b]pyridazin-8-yl)morpholine trifluoroacetic acid salt], the pIC50 in data set [1] is 7.60; in data set [2], 7.70. Also, the concentration at 2 h in data set [3] (brain) was 52 ng/g; in data set [3] (plasma), 135 ng/mL. Also, the Kp at 2 h in data set [3] came to 0.39.

Regarding `O=C(O)CCc1ccc(-c2c(/C=C/c3ccc4ccccc4n3)nc3c(N4CCOCC4)ccnn23)cn1` [Cpd 125, (E)-3-(5-(8-Morpholino-2-(2-(quinolin-2-yl)vinyl)imidazo[1,2-b]pyridazin-3-yl)pyridin-2-yl)propanoic acid], the pIC50 in data set [1] and in data set [2] was 8.70 throughout. Further, the figures for the concentration at 2 h in data set [3] (brain) and in data set [3] (plasma) were 0 ng/g and 284 ng/mL, respectively. Moreover, the Kp at 2 h in data set [3] came out at 0.

For the compound `NS(=O)(=O)N1CCN(c2ccc(-c3c(CSc4ccc5ccccc5n4)nc4c(N5CCOCC5)ccnn34)cn2)CC1` [Cpd 20, 4-(5-(8-Morpholino-2-((quinolin-2-ylthio)methyl)imidazo[1,2-b]pyridazin-3-yl)pyridin-2-yl)piperazine-1-sulfonamide], the figures for the pIC50 in data set [1] and in data set [2] were 8.70 and 7.74, respectively. Besides, the concentration at 2 h in data set [3] (brain) turned out to be 152 ng/g; in data set [3] (plasma), 492 ng/mL. Further, the Kp at 2 h in data set [3] came out at 0.31.

On to `O=C(Nc1nc2c(N3CCOCC3)ccnn2c1-c1ccc(N2CCNCC2)nc1)c1ccc2ccccc2n1` [Cpd 8, N-(8-Morpholino-3-(6-(piperazin-1-yl)pyridin-3-yl)imidazo[1,2-b]pyridazin-2-yl)quinoline-2-carboxamide trifluoroacetic acid salt], for which the results for the pIC50 in data set [1] and in data set [2] were 6.09 and 6.22, respectively. In addition, the concentration at 2 h in data set [3] (brain) came out at 38.8 ng/g; in data set [3] (plasma) it was 33.7 ng/mL. The Kp at 2 h in data set [3] was 1.16.

Regarding `CS(=O)(=O)NC(=O)c1ccc(-c2c(CCc3ccc4ccccc4n3)nc3c(N4CCOCC4)ccnn23)cc1` [compound 43, N-(Methylsulfonyl)-4-(8-morpholino-2-(2-(quinolin-2-yl)ethyl)imidazo[1,2-b]pyridazin-3-yl)benzamide], the pIC50 in data set [1] was 9.00; in data set [2], 8.70. The values for the concentration at 2 h in data set [3] (brain) and in data set [3] (plasma) were 0 ng/g and 1.8 ng/mL, respectively. Besides, the Kp at 2 h in data set [3] was 0.

In the case of `CS(=O)(=O)NC(=O)c1ccc(-c2c(CCc3ccc4ccccc4n3)nc3c(N4CCOCC4)ccnn23)cn1` [Cpd 30, N-(Methylsulfonyl)-5-(8-morpholino-2-(2-(quinolin-2-yl)ethyl)imidazo[1,2-b]pyridazin-3-yl)picolinamide trifluoroacetic acid salt], the pIC50 in data set [1] was 8.70; in data set [2], 9.00. The concentration at 2 h in data set [3] (brain) is 40.2 ng/g; in data set [3] (plasma), 107 ng/mL. Besides, the Kp at 2 h in data set [3] was 2.5.

With `Cn1nc(-c2ccc(-c3c(/C=C/c4ccc5ccccc5n4)nc4c(N5CCOCC5)ccnn34)cc2)nc1O` [Cpd 74, (E)-2-Methyl-5-(4-(8-morpholino-2-(2-(quinolin-2-yl)vinyl)imidazo[1,2-b]pyridazin-3-yl)phenyl)-2H-1,2,4-triazol-3-ol], the pIC50 in data set [1] and in data set [2] was 7.89 each time. Moreover, the concentration at 2 h in data set [3] (brain) was determined as 34.7 ng/g; in data set [3] (plasma) it was 857 ng/mL. For the same compound, in data set [3], the Kp at 2 h came out at 0.04.

As to `CS(=O)(=O)NC(=O)c1ccc(-c2c(C#Cc3ccc4ccccc4n3)nc3c(N4CCOCC4)ccnn23)cc1` [compound 83, N-(Methylsulfonyl)-4-(8-morpholino-2-(quinolin-2-ylethynyl)imidazo[1,2-b]pyridazin-3-yl)benzamide], the pIC50 in data set [1] and in data set [2] was 9.00 in each case. Besides, the concentration at 2 h in data set [3] (brain) was found to be 0 ng/g; in data set [3] (plasma), 205 ng/mL. The Kp at 2 h in data set [3] was 0.

As to `Oc1ncn(-c2ccc(-c3c(/C=C/c4ccc5ccccc5n4)nc4c(N5CCOCC5)ccnn34)cc2)n1` [Cpd 54, (E)-1-(4-(8-Morpholino-2-(2-(quinolin-2-yl)vinyl)imidazo[1,2-b]pyridazin-3-yl)phenyl)-1H-1,2,4-triazol-3-ol trifluoroacetic acid salt], the values for the pIC50 in data set [1] and in data set [2] were 7.96 and 8.15, respectively. For the same compound, the concentration at 2 h amounted to 0 ng/g in data set [3] (brain) and 23 ng/mL in data set [3] (plasma). The Kp at 2 h in data set [3] turned out to be 0.

These data come from US9193736B2, “PDE 10a inhibitors for the treatment of type II diabetes” (Janssen Pharmaceutica, NV, priority 2013, dated 2015).
